Assay results taken from US20250042889A1, “3CLPRO PROTEASE INHIBITOR” (SHANGHAI QILU PHARMACEUTICAL RESEARCH AND DEVELOPMENT …, priority 2021, published 2025).

Biological target: SARS-COV-2 3CLpro/Mpro protease (Severe acute respiratory syndrome coronavirus 2 (2019-nCoV) (SARS-CoV-2), UniProt P0DTD1)
Assay: Inhibitory effect on SARS-COV-2 3CLpro/Mpro protease by fluorescence resonance energy transfer
Format: biochemical
Conditions: activity intervals A-D, read-out: IC50 (nM), Inhibition on SARS-CoV-2 3CLpro/Mpro protease

SMILES	IC50
CNc1cncc(C(=O)N2CCC[C@@H](Nc3c(C(=O)N4CCOCC4)cc(Br)cc3[N+](=O)[O-])C2)c1 [Example 200]	10 to 50 nM
CNc1cncc(C(=O)N[C@H]2CCOC[C@H]2Nc2c(C(=O)N3CCCCC3)cc(Br)cc2[N+](=O)[O-])c1 [Example 201]	10 to 50 nM
CNc1cncc(C(=O)N2C[C@H](Nc3c(C(=O)N4C[C@H](C)C[C@@H](C)C4)cc(Br)cc3[N+](=O)[O-])C(F)(F)C2)c1 [Example 202]	10 to 50 nM
C[C@@H]1CN(C(=O)c2cc(Br)cc([N+](=O)[O-])c2N[C@H]2CN(C(=O)c3cncc(Br)c3)CC2(F)F)C[C@H](C)O1 [Example 203]	10 to 50 nM
O=C1CC(C(=O)N2CCC[C@@H](Nc3c(C(=O)N4CCCCC4)cc(Br)cc3[N+](=O)[O-])C2)c2ccccc2N1 (some centres unmarked) [Example 204]	10 to 50 nM
O=C(N[C@H]1CCOC[C@H]1Nc1c(C(=O)N2CCCCC2)cc(Br)cc1[N+](=O)[O-])c1cncc2ccccc12 [Example 205]	< 10 nM
O=C(N[C@H]1COCC[C@H]1Nc1c(C(=O)N2CCC(F)(F)CC2)cc(Br)cc1[N+](=O)[O-])c1cncc2cc(Cl)ccc12 [Example 206]	50 to 100 nM
O=C(N[C@H]1CCCC[C@H]1Nc1c(C(=O)N2C[C@@H](O)C[C@@H](NC(=O)C(F)(F)F)C2)cc(Br)cc1C(F)(F)F)c1cncc2cc(Cl)ccc12 [Example 207]	10 to 50 nM
COCCN1CCN(C(=O)c2cc(Br)cc([N+](=O)[O-])c2N[C@H]2CN(C(=O)c3cncc(I)c3)CC2(F)F)CC1 [Example 208]	10 to 50 nM
O=C(c1cncc(I)c1)N1C[C@H](Nc2c(C(=O)N3CCCCC3)cc(Br)cc2[N+](=O)[O-])C(F)(F)C1 [Example 209]	10 to 50 nM
C[C@@H]1CN(C(=O)c2cc(Br)cc(C(F)(F)F)c2N[C@@H]2CCOC[C@@H]2NC(=O)c2cncc3ccccc23)C[C@H](C)O1 [Example 210]	10 to 50 nM
COCCN1[C@H](C)CN(C(=O)c2cc(Br)cc([N+](=O)[O-])c2N[C@@H]2CCOC[C@@H]2NC(=O)c2cncc3ccccc23)C[C@@H]1C [Example 211]	10 to 50 nM
CNc1cncc(C(=O)N2CCC[C@@H](Nc3c(C(=O)N4C[C@@H](C)O[C@H](C)C4)cc(Br)cc3[N+](=O)[O-])C2)c1 [Example 212]	10 to 50 nM
CNc1cncc(C(=O)N2CCC[C@@H](Nc3c(C(=O)N4C[C@H](C)O[C@@H](C)C4)cc(Br)cc3[N+](=O)[O-])C2)c1 [Example 213]	10 to 50 nM
C[C@@H]1CN(C(=O)c2cc(Br)cc([N+](=O)[O-])c2N[C@@H]2COCC[C@@H]2NC(=O)c2cncc3ccccc23)C[C@H](C)O1 [Example 214]	10 to 50 nM
COCCN1CCN(C(=O)c2cc(Br)cc([N+](=O)[O-])c2N[C@@H]2COCC[C@@H]2NC(=O)c2cncc3cc(Cl)ccc23)CC1 [Example 215]	10 to 50 nM
CC(=O)Nc1cncc(C(=O)N2CCC[C@@H](Nc3c(C(=O)N4CCCCC4)cc(Br)cc3[N+](=O)[O-])C2)c1 [Example 216]	10 to 50 nM
CNc1cncc(C(=O)N[C@H]2CCCC[C@H]2Nc2c(C(=O)N3C[C@H](C)O[C@@H](C)C3)cc(Br)cc2[N+](=O)[O-])c1 [Example 217]	50 to 100 nM
COCCN1CCN(C(=O)c2cc(Br)cc([N+](=O)[O-])c2N[C@@H]2COCC[C@@H]2NC(=O)c2cncc3ccccc23)CC1 [Example 218]	10 to 50 nM
CNc1cncc(C(=O)N2CCC[C@@H](Nc3c(C(=O)N4CCO[C@@H](C)C4)cc(Br)cc3[N+](=O)[O-])C2)c1 [Example 219]	10 to 50 nM

SMILES	IC50
C[C@@H]1CN(C(=O)c2cc(Br)cc([N+](=O)[O-])c2N[C@H]2CN(C(=O)c3cncc(Br)c3)CC2(C)C)C[C@@H](C)O1 [Example 220]	50 to 100 nM
CNc1cncc(C(=O)N[C@H]2CCOC[C@H]2Nc2c(C(=O)N3CCN(CCOC)CC3)cc(Br)cc2[N+](=O)[O-])c1 [Example 221]	10 to 50 nM
CNc1cncc(C(=O)N[C@H]2CCCC[C@H]2Nc2c(C(=O)N3CCN(CCOC)CC3)cc(Br)cc2[N+](=O)[O-])c1 [Example 222]	10 to 50 nM
CNc1cncc(C(=O)N[C@H]2CCCC[C@H]2Nc2c(C(=O)N3C[C@@H](C)O[C@H](C)C3)cc(Br)cc2[N+](=O)[O-])c1 [Example 223]	10 to 50 nM
CNc1cncc(C(=O)N[C@H]2CCOC[C@H]2Nc2c(C(=O)N3C[C@H](C)O[C@@H](C)C3)cc(Br)cc2[N+](=O)[O-])c1 [Example 224]	10 to 50 nM
C[C@H]1CN(C(=O)c2cc(Br)cc([N+](=O)[O-])c2N[C@H]2CN(C(=O)c3cncc(Br)c3)CC2(C)C)C[C@H](C)O1 [Example 225]	< 10 nM
CNc1cncc(C(=O)N[C@H]2CCOC[C@H]2Nc2c(C(=O)N3CCC[C@@H](C)C3)cc(Br)cc2[N+](=O)[O-])c1 [Example 226]	10 to 50 nM
COCCN1CCN(C(=O)c2cc(Br)cc([N+](=O)[O-])c2N[C@@H]2CCOC[C@@H]2NC(=O)c2cncc3ccccc23)CC1 [Example 227]	10 to 50 nM
C[C@@H]1CN(C(=O)c2cc(Br)cc([N+](=O)[O-])c2N[C@@H]2COCC[C@@H]2NC(=O)c2cncc3cc(Cl)ccc23)C[C@H](C)N1 [Example 228]	10 to 50 nM
CNc1cncc(C(=O)N2CCC[C@@H](Nc3c(C(=O)N4CCC5(CCOC5)CC4)cc(Br)cc3[N+](=O)[O-])C2)c1 [Example 230]	< 10 nM
CNc1cncc(C(=O)N[C@H]2CCCC[C@H]2Nc2c(C(=O)N3CCO[C@@H](C)C3)cc(Br)cc2[N+](=O)[O-])c1 [Example 231]	10 to 50 nM
CNc1cncc(C(=O)N2CCC[C@@H](Nc3c(C(=O)N4CC5COCC5C4)cc(Br)cc3[N+](=O)[O-])C2)c1 (some centres unmarked) [Example 232]	10 to 50 nM
CNc1cncc(C(=O)N2CCC[C@@H](Nc3c(C(=O)N4C[C@@H](C)N(CCOC)[C@@H](C)C4)cc(Br)cc3[N+](=O)[O-])C2)c1 [Example 233]	50 to 100 nM
CNc1cncc(C(=O)N[C@H]2CCOC[C@H]2Nc2c(C(=O)N3CCC[C@H](C)C3)cc(Br)cc2[N+](=O)[O-])c1 [Example 234]	10 to 50 nM
CNc1cncc(C(=O)N2CCC[C@@H](Nc3c(C(=O)N4CCN(C5CCOCC5)CC4)cc(Br)cc3[N+](=O)[O-])C2)c1 [Example 235]	10 to 50 nM
CNc1cncc(C(=O)N2CCC[C@@H](Nc3c(C(=O)N4CCC5(CC4)COC5)cc(Br)cc3[N+](=O)[O-])C2)c1 [Example 236]	10 to 50 nM
CNc1cncc(C(=O)N[C@H]2CCCC[C@H]2Nc2c(C(=O)N3CCO[C@H](C)C3)cc(Br)cc2[N+](=O)[O-])c1 [Example 237]	10 to 50 nM
CNc1cncc(C(=O)N2CCC[C@@H](Nc3c(C(=O)N4CCN(CCOC)[C@H](C)C4)cc(Br)cc3[N+](=O)[O-])C2)c1 [Example 238]	10 to 50 nM
CNc1cncc(C(=O)N2CCC[C@@H](Nc3c(C(=O)N4CCC[C@H](OC)C4)cc(Br)cc3[N+](=O)[O-])C2)c1 [Example 239]	10 to 50 nM
CNc1cncc(C(=O)N2CCC[C@@H](Nc3c(C(=O)N4CCC(O)(C(F)(F)F)CC4)cc(Br)cc3[N+](=O)[O-])C2)c1 [Example 240]	10 to 50 nM

SMILES	IC50
CNc1cncc(C(=O)N2CCC[C@@H](Nc3c(C(=O)N4CCC(C)(O)CC4)cc(Br)cc3[N+](=O)[O-])C2)c1 [Example 241]	10 to 50 nM
CNc1cncc(C(=O)N2CCC[C@@H](Nc3c(C(=O)N4C[C@H](C)N(CCOC)[C@@H](C)C4)cc(Br)cc3[N+](=O)[O-])C2)c1 [Example 242]	10 to 50 nM
CNc1cncc(C(=O)N2CCC[C@@H](Nc3c(C(=O)N4CC[C@H](OC)C4)cc(Br)cc3[N+](=O)[O-])C2)c1 [Example 244]	10 to 50 nM
CNc1cncc(C(=O)N2C[C@H](Nc3c(C(=O)N4CCCCC4)cc(Br)cc3[N+](=O)[O-])C(C)(O)C2)c1 (some centres unmarked) [Example 245]	50 to 100 nM
CC1(O)CN(C(=O)c2cncc(Br)c2)C[C@@H]1Nc1c(C(=O)N2CCCCC2)cc(Br)cc1[N+](=O)[O-] (some centres unmarked) [Example 246]	10 to 50 nM
CNc1cncc(C(=O)N2CCC[C@@H](Nc3c(C(=O)N4CCN(CCOC)[C@@H](C)C4)cc(Br)cc3[N+](=O)[O-])C2)c1 [Example 247]	10 to 50 nM
CNc1cncc(C(=O)N2CCC[C@@H](Nc3c(C(=O)N4CCC(C)CC4)cc(Br)cc3[N+](=O)[O-])C2)c1 [Example 248]	10 to 50 nM
COCCN1CCN(C(=O)c2cc(Br)cc([N+](=O)[O-])c2N[C@@H]2CCCN(C(=O)[C@H]3CC(=O)N[C@@H](C)C3)C2)CC1 [Example 249]	10 to 50 nM
CNc1cncc(C(=O)N2CCC[C@@H](Nc3c(C(=O)N4CCC5(CCOCC5)CC4)cc(Br)cc3[N+](=O)[O-])C2)c1 [Example 250]	10 to 50 nM
CNc1cncc(C(=O)N2CCC[C@@H](Nc3c(C(=O)N4C[C@H](C)C[C@H](C)C4)cc(Br)cc3[N+](=O)[O-])C2)c1 [Example 251]	50 to 100 nM
CNc1cncc(C(=O)N2CCC[C@@H](Nc3c(C(=O)N4CCC(C)(C)CC4)cc(Br)cc3[N+](=O)[O-])C2)c1 [Example 252]	10 to 50 nM
CNc1cncc(C(=O)N2CCC[C@@H](Nc3c(C(=O)N4CCC[C@@H](C)C4)cc(Br)cc3[N+](=O)[O-])C2)c1 [Example 253]	50 to 100 nM
C[C@@H]1CN(C(=O)c2cc(Br)cc([N+](=O)[O-])c2N[C@@H]2CCCN(C(=O)[C@H]3CC(=O)N[C@@H](C)C3)C2)C[C@H](C)O1 [Example 254]	10 to 50 nM
CNc1cncc(C(=O)N2CCC[C@@H](Nc3c(C(=O)N4CCC(F)(F)C4)cc(Br)cc3[N+](=O)[O-])C2)c1 [Example 255]	10 to 50 nM
CNc1cncc(C(=O)N2CCC[C@@H](Nc3c(C(=O)N4CCC[C@H](C)C4)cc(Br)cc3[N+](=O)[O-])C2)c1 [Example 256]	10 to 50 nM
CNc1cncc(C(=O)N2CCC[C@@H](Nc3c(C(=O)N4C[C@@H](C)C[C@H](C)C4)cc(Br)cc3[N+](=O)[O-])C2)c1 [Example 257]	10 to 50 nM
CNc1cncc(C(=O)N2CCC[C@@H](Nc3c(C(=O)N4CC(C)CC(O)C4)cc(Br)cc3[N+](=O)[O-])C2)c1 (some centres unmarked) [Example 258]	10 to 50 nM
CNc1cncc(C(=O)N[C@H]2CCOC[C@H]2Nc2c(C(=O)N3C[C@@H](C)O[C@H](C)C3)cc(Br)cc2[N+](=O)[O-])c1 [Example 259]	10 to 50 nM
CCNc1cncc(C(=O)N2CCC[C@@H](Nc3c(C(=O)N4CCCCC4)cc(Br)cc3[N+](=O)[O-])C2)c1 [Example 260]	10 to 50 nM
